In the kinase profiling compilation of Christmann-Franck et al. (2016):

Columns and labels:
Assay in all cases: radiometric filter-binding kinase assay
DYRK1A (human) = DYRK1A (human) (UniProt Q13627)
MAPK8 (human) = MAPK8 (human) (UniProt P45983)
ROCK2 (rat) = conditions: accession and sequence are those of the human protein
DYRK3 (human) = DYRK3 (human) (UniProt O43781)
CSNK2A1 (human) = CSNK2A1 (human) (UniProt P68400)
HIPK2 (human) = HIPK2 (human) (UniProt Q9H2X6); conditions: compound 10.0 µM
CHEK1 (human) = CHEK1 (human) (UniProt O14757); conditions: compound 10.0 µM
IGF1R (human) = IGF1R (human) (UniProt P08069)
CaMK1 (human) = CaMK1 (human) (UniProt Q14012)
MAPK13 (human) = MAPK13 (human) (UniProt O15264)
Sequence of MAPK13 (human) (O15264 whole entry, looked up): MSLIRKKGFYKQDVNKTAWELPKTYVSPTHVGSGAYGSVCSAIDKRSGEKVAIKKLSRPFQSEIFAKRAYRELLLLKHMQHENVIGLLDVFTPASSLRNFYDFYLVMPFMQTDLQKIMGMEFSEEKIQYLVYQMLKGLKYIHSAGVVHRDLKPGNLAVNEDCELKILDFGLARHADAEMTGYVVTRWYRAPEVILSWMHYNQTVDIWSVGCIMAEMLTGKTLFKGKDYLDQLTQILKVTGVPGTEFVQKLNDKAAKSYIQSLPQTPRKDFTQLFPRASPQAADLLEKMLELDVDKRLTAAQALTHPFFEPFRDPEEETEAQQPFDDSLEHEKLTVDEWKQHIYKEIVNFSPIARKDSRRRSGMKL

YES1 (human) = YES1 (human) (UniProt P07947)
Sequence of YES1 (human) (P07947 whole entry, looked up): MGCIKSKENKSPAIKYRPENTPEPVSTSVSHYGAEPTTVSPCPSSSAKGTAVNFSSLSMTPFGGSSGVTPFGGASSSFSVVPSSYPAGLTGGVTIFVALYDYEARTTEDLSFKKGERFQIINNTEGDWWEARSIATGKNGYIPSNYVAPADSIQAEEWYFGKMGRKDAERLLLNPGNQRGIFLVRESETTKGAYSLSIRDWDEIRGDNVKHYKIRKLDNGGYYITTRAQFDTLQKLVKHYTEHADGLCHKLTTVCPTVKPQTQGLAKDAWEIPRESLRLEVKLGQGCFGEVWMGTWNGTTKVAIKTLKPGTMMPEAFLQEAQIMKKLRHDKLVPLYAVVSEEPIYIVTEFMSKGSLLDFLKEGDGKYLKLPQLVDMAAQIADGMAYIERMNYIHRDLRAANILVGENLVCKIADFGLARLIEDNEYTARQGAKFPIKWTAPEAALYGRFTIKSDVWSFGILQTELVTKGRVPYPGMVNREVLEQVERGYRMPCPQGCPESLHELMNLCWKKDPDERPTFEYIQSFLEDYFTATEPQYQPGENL

TBK1 (human) = TBK1 (human) (UniProt Q9UHD2)
LCK (mouse) = conditions: accession and sequence are those of the human protein
AURKB (human) = AURKB (human) (UniProt Q96GD4)
Sequence of AURKB (human) (Q96GD4 whole entry, looked up): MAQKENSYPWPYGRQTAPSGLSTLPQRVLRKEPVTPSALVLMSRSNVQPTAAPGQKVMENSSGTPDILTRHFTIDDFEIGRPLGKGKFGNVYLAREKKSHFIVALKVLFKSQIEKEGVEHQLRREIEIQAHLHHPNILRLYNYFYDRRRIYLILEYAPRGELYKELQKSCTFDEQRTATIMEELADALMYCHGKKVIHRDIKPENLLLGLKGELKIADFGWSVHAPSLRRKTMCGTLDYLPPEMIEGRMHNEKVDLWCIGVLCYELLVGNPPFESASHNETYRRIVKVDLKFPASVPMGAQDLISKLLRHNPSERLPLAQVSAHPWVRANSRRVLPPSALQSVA

PHKG1 (human) = PHKG1 (human) (UniProt Q16816)
BRSK2 (human) = BRSK2 (human) (UniProt Q8IWQ3)
PIM3 (human) = PIM3 (human) (UniProt Q86V86)
MAPKAPK5 (human) = MAPKAPK5 (human) (UniProt Q8IW41)
Sequence of MAPKAPK5 (human) (Q8IW41 whole entry, looked up): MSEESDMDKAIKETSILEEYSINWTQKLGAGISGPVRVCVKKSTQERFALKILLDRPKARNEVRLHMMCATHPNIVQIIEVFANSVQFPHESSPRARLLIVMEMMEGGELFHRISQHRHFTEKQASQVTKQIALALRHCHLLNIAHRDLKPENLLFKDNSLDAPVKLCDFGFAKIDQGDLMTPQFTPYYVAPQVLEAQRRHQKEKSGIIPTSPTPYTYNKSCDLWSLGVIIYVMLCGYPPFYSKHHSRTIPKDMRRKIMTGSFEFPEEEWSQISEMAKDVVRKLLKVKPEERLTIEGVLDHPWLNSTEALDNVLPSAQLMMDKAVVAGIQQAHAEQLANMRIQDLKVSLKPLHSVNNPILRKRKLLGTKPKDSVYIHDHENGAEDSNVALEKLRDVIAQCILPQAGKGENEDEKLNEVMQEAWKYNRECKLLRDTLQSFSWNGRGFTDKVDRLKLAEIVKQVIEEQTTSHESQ

MARK3 (human) = MARK3 (human) (UniProt P27448)
Sequence of MARK3 (human) (P27448 whole entry, looked up): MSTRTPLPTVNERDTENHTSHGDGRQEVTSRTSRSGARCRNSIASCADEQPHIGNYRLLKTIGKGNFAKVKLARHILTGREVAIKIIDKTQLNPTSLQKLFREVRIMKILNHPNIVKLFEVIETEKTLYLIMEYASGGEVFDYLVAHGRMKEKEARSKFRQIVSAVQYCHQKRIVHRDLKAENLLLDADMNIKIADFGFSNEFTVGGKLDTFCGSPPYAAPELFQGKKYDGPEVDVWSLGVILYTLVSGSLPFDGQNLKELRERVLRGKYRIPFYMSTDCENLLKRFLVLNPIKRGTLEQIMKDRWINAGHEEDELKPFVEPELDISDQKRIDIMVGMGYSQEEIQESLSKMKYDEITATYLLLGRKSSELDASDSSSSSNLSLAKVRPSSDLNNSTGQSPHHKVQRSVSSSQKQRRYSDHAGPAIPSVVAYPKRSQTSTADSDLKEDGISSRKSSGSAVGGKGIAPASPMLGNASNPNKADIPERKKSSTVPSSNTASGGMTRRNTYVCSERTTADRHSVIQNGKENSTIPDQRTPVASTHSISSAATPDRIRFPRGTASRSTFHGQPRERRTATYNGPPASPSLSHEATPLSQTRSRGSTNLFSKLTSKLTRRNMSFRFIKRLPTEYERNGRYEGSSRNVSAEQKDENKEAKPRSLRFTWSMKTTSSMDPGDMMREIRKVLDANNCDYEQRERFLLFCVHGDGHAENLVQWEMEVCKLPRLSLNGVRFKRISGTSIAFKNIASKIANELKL

MAPK11 (human) = MAPK11 (human) (UniProt Q15759)
Sequence of MAPK11 (human) (Q15759 whole entry, looked up): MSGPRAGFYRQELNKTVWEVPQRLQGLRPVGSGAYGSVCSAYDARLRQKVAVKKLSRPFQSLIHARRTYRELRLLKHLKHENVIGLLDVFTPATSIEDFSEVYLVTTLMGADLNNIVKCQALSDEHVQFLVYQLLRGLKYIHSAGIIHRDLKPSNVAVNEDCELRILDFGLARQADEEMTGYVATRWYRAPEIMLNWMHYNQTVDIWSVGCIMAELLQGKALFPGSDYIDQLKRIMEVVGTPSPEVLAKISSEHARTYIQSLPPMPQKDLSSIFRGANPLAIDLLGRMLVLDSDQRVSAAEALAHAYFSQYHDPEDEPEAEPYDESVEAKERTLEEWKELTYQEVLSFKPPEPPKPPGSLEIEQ

CAMKK2 (human) = CAMKK2 (human) (UniProt Q96RR4)
Sequence of CAMKK2 (human) (Q96RR4 whole entry, looked up): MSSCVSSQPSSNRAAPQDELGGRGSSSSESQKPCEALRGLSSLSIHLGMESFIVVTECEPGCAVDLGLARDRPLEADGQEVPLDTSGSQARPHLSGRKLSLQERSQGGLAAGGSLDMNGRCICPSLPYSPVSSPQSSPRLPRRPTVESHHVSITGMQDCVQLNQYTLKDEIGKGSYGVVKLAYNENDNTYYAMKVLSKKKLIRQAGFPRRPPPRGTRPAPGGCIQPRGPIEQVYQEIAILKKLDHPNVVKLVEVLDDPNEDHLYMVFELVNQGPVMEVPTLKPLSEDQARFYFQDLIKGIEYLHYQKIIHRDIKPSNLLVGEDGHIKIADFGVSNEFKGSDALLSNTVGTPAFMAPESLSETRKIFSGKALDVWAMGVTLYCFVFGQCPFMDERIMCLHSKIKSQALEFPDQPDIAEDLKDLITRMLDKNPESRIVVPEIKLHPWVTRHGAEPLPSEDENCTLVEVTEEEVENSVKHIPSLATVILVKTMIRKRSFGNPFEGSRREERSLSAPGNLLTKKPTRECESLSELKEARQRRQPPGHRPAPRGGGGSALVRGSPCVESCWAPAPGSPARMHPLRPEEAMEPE

FGFR1 (human) = FGFR1 (human) (UniProt P11362)
Sequence of FGFR1 (human) (P11362 whole entry, looked up): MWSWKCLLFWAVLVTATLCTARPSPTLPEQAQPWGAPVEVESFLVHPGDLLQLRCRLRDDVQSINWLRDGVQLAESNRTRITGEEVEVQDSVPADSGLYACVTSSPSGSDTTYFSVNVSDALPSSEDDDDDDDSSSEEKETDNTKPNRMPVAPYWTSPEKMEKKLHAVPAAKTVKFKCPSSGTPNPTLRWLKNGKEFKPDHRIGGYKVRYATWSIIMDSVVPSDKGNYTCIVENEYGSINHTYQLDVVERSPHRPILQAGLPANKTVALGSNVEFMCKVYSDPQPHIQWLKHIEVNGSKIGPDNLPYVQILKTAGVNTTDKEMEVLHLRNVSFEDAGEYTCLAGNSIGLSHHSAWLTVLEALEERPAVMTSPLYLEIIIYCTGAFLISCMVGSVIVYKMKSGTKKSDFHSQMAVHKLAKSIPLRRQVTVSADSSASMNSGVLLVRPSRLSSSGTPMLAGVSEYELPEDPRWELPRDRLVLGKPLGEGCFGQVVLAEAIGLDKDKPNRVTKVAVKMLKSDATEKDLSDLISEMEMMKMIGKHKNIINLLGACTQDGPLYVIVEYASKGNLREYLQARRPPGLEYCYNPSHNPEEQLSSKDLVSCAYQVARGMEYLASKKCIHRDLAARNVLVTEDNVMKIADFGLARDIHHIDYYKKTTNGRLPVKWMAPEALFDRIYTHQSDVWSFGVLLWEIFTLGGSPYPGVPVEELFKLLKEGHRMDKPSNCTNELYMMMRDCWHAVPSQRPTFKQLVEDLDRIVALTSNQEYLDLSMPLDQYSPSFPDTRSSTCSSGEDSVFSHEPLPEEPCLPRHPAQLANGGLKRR

[1] = tested on: SGK1 (human), O00141 [S422D]
SRPK1 (human) = SRPK1 (human) (UniProt Q96SB4)
Sequence of SRPK1 (human) (Q96SB4 whole entry, looked up): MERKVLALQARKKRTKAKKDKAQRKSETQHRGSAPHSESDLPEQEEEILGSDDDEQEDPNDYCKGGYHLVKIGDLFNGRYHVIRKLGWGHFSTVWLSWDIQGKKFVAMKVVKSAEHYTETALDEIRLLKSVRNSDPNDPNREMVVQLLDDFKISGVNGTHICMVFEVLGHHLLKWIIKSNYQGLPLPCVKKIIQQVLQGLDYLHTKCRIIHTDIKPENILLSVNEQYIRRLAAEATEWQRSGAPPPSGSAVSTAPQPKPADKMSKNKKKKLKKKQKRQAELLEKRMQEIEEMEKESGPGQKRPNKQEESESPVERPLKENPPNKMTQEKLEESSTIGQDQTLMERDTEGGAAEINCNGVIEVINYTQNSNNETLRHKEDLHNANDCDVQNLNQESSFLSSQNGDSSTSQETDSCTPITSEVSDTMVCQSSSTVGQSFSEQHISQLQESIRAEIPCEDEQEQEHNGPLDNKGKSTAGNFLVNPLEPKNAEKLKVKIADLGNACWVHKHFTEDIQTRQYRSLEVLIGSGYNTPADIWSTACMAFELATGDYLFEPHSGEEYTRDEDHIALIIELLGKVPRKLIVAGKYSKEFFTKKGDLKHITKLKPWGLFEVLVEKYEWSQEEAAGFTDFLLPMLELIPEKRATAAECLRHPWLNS

STK3 (human) = STK3 (human) (UniProt Q13188)
MKNK1 (human) = MKNK1 (human) (UniProt Q9BUB5); conditions: compound 1.0 µM

## O=C1NC(=S)N[C@@H]1Cc1c[nH]c2ccccc12
DYRK1A (human); compound 1.0 µM
  residual activity: 85%
DYRK1A (human); compound 10.0 µM
  residual activity: 92%
MAPK8 (human); compound 1.0 µM
  residual activity: 83%
MAPK8 (human); compound 10.0 µM
  residual activity: 107%
ROCK2 (rat); compound 1.0 µM
  residual activity: 83%
ROCK2 (rat); compound 10.0 µM
  residual activity: 96%
DYRK3 (human); compound 1.0 µM
  residual activity: 78%
DYRK3 (human); compound 10.0 µM
  residual activity: 96%
CSNK2A1 (human); compound 1.0 µM
  residual activity: 83%
CSNK2A1 (human); compound 10.0 µM
  residual activity: 93%
HIPK2 (human)
  residual activity: 92%
CHEK1 (human)
  residual activity: 81%
IGF1R (human); compound 1.0 µM
  residual activity: 113%
IGF1R (human); compound 10.0 µM
  residual activity: 100%
CaMK1 (human); compound 1.0 µM
  residual activity: 89%
CaMK1 (human); compound 10.0 µM
  residual activity: 104%
MAPK13 (human); compound 1.0 µM
  residual activity: 94%
MAPK13 (human); compound 10.0 µM
  residual activity: 98%
YES1 (human); compound 1.0 µM
  residual activity: 85%
YES1 (human); compound 10.0 µM
  residual activity: 96%
TBK1 (human); compound 1.0 µM
  residual activity: 106%
TBK1 (human); compound 10.0 µM
  residual activity: 94%
LCK (mouse); compound 1.0 µM
  residual activity: 74%
LCK (mouse); compound 10.0 µM
  residual activity: 95%
AURKB (human); compound 1.0 µM
  residual activity: 100%
AURKB (human); compound 10.0 µM
  residual activity: 106%
PHKG1 (human); compound 1.0 µM
  residual activity: 95%
PHKG1 (human); compound 10.0 µM
  residual activity: 96%
BRSK2 (human); compound 1.0 µM
  residual activity: 79%
BRSK2 (human); compound 10.0 µM
  residual activity: 94%
PIM3 (human); compound 1.0 µM
  residual activity: 90%
PIM3 (human); compound 10.0 µM
  residual activity: 95%
MAPKAPK5 (human); compound 1.0 µM
  residual activity: 89%
MAPKAPK5 (human); compound 10.0 µM
  residual activity: 100%
MARK3 (human); compound 1.0 µM
  residual activity: 92%
MARK3 (human); compound 10.0 µM
  residual activity: 85%
MAPK11 (human); compound 1.0 µM
  residual activity: 94%
MAPK11 (human); compound 10.0 µM
  residual activity: 95%
CAMKK2 (human); compound 1.0 µM
  residual activity: 79%
CAMKK2 (human); compound 10.0 µM
  residual activity: 95%
FGFR1 (human); compound 1.0 µM
  residual activity: 83%
FGFR1 (human); compound 10.0 µM
  residual activity: 80%
[1]; compound 1.0 µM
  residual activity: 87%
[1]; compound 10.0 µM
  residual activity: 96%
SRPK1 (human); compound 1.0 µM
  residual activity: 100%
SRPK1 (human); compound 10.0 µM
  residual activity: 98%
STK3 (human); compound 1.0 µM
  residual activity: 99%
STK3 (human); compound 10.0 µM
  residual activity: 102%
MKNK1 (human)
  residual activity: 85%
